Several values for one entry are separate records, joined by “and”; a condition that tells them apart may be missing. Equal entries are not always repeated.
What was measured:
[1] = LC-HRMS analysis, enzymatic assay buffer + probe without enzyme; settings: 1 h
Protocol: These analyses were carried out by using UPLC-HRMS procedure with Vanquish UPLC system coupled to a Thermo Scientific Q-Exactive Plus, operating in negative electrospray ionization mode. The chromatographic separation was carried out using a Phenomenex Synergi 4 µ Polar-RP 80 A (150 × 2 mm) equipped with a Phenomenex Polar-RP (4 mm × 2 mm) security guard column. The mobile phase consisted of A: acetonitrile 0.1% formic acid and B: 0.1% formic acid. We used a linear elution gradient, starting from 80% of A to 5% A in 3 min, 3 min at 5% A, an equilibration of 4 min for a total run time of 10.00 min, at 300 µl/min flow rate. The autosampler temperature was set at 15 °C, the injection volume was 5 µl and column was maintained at 40 °C. […] Before injecting the samples, the blanks in the list were analyzed and every biological sample was analyzed in duplicate. The biological samples analyzed were as follow: (1) Enzymatic assay Buffer; (2) Enzymatic assay Buffer + NAD^+; (3) Enzymatic assay Buffer + Probe 10 or Probe 11; (4) Enzymatic assay Buffer + ALDH1A1; (5) Enzymatic assay Buffer + ALDH1A2; (6) Enzymatic assay Buffer + ALDH1A3; (7) Enzymatic assay Buffer + ALDH1A1 + Probe 10 or Probe 11; (8) Enzymatic assay Buffer + ALDH1A2 + Probe 10 or Probe 11; (9) Enzymatic assay Buffer + ALDH1A3 + Probe 10 or Probe 11. […]

[2] = tested on: U87MG, 3054, 3060, HEK293T, 4T1, human fetal astrocytes; experiment: Cell viability (MTT assay), all cell lines of Fig. 6a; assay type: cell-based; settings: 10 µM, 72 h
Protocol: (§1) In total, 10 × 10^5 U87MG human glioblastoma, patient-derived glioma cells 3054 and 3060, HEK293T human embryonic kidney, 4T1 murine mammary carcinoma, human fetal astrocytes cell lines were plated in their respective medium and treated for 72 h with our fluorescent probe 10 and 11, solubilized in DMSO in a final concentration of […]. We treated controls with DMSO in the same final concentration and we compared the viability of each treatment to controls. The viability of cells was measured using the 3-(4,5-dimethylthiazol-2-yl)-2,5-diphenyltetrazolium assay (MTT assay)[23].

[3] = Cell viability (MTT assay); assay type: cell-based, human; settings: human
Protocol: as §1

[4] = tested on: patient-derived glioma cells 3060; experiment: Cell viability (MTT assay); assay type: cell-based, human; settings: 3060; 10uM, 72 h
Protocol: as §1

[5] = tested on: HEK293T human embryonic kidney; experiment: Cell viability (MTT assay); assay type: cell-based; settings: 10uM, 72 h
Protocol: as §1

U87MG human glioblastoma = experiment: Cell viability (MTT assay); assay type: cell-based; settings: 10uM, 72 h
Protocol: as §1

human fetal astrocytes = experiment: Cell viability (MTT assay); assay type: cell-based; settings: hASTRO; 10uM, 72 h
Protocol: as §1

[6] = tested on: patient-derived glioma cells 3054; experiment: Cell viability (MTT assay); assay type: cell-based, human; settings: 3054; 10uM, 72 h
Protocol: as §1

[7] = tested on: patient-derived glioma cell 3054; experiment: Fluorescent microscopy of probe in cells; assay type: cell-based, human; settings: 10 µM
[8] = tested on: GL261 glioblastoma in left striatum; experiment: In vivo labeling of orthotopic GL261 glioblastoma after i.p. injection; set-up: species or system mice; settings: 6 days after implantation, 6 h after injection, probe 10 18 μg, probe 11 5 μg
Description: We used in vitro and in vivo cells from a mouse high grade glioma cell line, GL261[56]. Briefly, ten 2- to 3-month-old female C57BlC mice were stereotactically implanted under deep general anesthesia (isoflurane supplemented with nitrous oxide) with 1 × 10^5 GL261 glioblastoma cells. The cells were stereotactically inoculated through a burr hole by a Hamilton syringe into the left striatum (coordinates: 1 mm anteroposterior and 1 mm lateral from bregma, at a depth of 3 mm). All experimental procedures were conducted in accordance with the European Communities Council Directive of the 24th of November 1986 (86/609 EEC), with the Recommendation 18/06/2007, Dir. 2010/63/UE and with the Italian law for care and use of experimental animals (DL116/92) and were approved by the Italian Ministry of Health (prot. E669C.15) and by the Bioethical Committee of the University of Turin. All animals were housed under a 12-h light-dark cycle in an environmentally controlled room. All experiments were designed to minimize the numbers of animals used and their discomfort. In each experiment, animals with tumors were allocated to two groups and i.p. injected with probe 10 (18 μg) or probe 11 (5 μg). […] Quantitative and phenotypic evaluations were made on the images acquired with a Leica TCS SP5 confocal microscope. […]

SMILES	AREA TIC of Probe 10 [1]	cell mortality [2]	viability at 72 h, 10 µM ([3]; HEK293T embryonic kidney cells)	viability at 72 h, 10 µM ([3]; U87MG glioblastoma cells)	viability at 72 h, 10 µM ([3]; human fetal astrocytes, hASTRO)	viability at 72 h, 10 µM ([3]; patient-derived glioma cells 3054, 3054)	viability at 72 h, 10 µM ([3]; patient-derived glioma cells 3060, 3060)	% cell viability [4]	% cell viability [5]	% cell viability (U87MG human glioblastoma)	% cell viability (human fetal astrocytes)	% cell viability [6]	fluorescence in cells ([7]; 2 h)	If ROI ([7]; 3054, 2 h (Fig. 5g))	labelling of the growing tumor in vivo [8]
COc1cc(/C=C/C(O)=C/C(=O)/C=C/c2ccc(OCc3cn(CCOc4ccc(C=O)cc4)nn3)c(OC)c2)ccc1O [Probe 10]	9480149 and 10113371 and 16727419 and 14473716	unable to induce cell mortality	96.8%	86.8%	85.3%	91.4%	91.2%	90.8745% and 90.3258% and 91.3365% and 91.3478% and 90.9745% and 90.4258% and 91.2365%	84.6125% and 86.4467% and 91.2307% and 96.8963% and 84.5125% and 86.3467% and 91.1307%	87.4968% and 85.4873% and 86.3577% and 86.8785% and 87.5968% and 85.3873% and 86.4577%	80.9182% and 84.1614% and 88.5188% and 85.4535% and 80.8182% and 84.0614% and 88.4188%	92.2458% and 92.6485% and 92.3652% and 91.8745% and 92.3458% and 92.5485% and 92.2652%	can determine fluorescence	223.52 a.u. and 222.87 a.u. and 254.268 a.u. and 245.65 a.u. and 230.548 a.u.	only Probe 10 was able to selectively label the growing tumor
CCOC(=O)Cn1cc(COc2ccc(/C=C/C(=O)/C=C(O)/C=C/c3ccc(O)c(OC)c3)cc2OC)nn1 [Probe 11]	–	–	–	–	–	–	–	–	–	–	–	–	–	–	does not penetrate to any appreciable level the tumor cells in vivo

Reference: article PMC9437101, “Curcumin-based-fluorescent probes targeting ALDH1A3 as a promising tool for glioblastoma precision surgery and early diagnosis” (Communications Biology, 2022)
